ChEMBL document CHEMBL3217540, “New 3-amidinophenylalanine-derived inhibitors of matriptase” (Medchemcomm, 2012)

Columns and labels:
[1] = target: T1, Suppressor of tumorigenicity 14 protein (Homo sapiens, UniProt Q9Y5Y6); assay: Inhibition of matriptase (unknown origin) using MeSO2-D-Cha-Gly-Arg-pNA as substrate
T1 sequence (Q9Y5Y6 whole entry): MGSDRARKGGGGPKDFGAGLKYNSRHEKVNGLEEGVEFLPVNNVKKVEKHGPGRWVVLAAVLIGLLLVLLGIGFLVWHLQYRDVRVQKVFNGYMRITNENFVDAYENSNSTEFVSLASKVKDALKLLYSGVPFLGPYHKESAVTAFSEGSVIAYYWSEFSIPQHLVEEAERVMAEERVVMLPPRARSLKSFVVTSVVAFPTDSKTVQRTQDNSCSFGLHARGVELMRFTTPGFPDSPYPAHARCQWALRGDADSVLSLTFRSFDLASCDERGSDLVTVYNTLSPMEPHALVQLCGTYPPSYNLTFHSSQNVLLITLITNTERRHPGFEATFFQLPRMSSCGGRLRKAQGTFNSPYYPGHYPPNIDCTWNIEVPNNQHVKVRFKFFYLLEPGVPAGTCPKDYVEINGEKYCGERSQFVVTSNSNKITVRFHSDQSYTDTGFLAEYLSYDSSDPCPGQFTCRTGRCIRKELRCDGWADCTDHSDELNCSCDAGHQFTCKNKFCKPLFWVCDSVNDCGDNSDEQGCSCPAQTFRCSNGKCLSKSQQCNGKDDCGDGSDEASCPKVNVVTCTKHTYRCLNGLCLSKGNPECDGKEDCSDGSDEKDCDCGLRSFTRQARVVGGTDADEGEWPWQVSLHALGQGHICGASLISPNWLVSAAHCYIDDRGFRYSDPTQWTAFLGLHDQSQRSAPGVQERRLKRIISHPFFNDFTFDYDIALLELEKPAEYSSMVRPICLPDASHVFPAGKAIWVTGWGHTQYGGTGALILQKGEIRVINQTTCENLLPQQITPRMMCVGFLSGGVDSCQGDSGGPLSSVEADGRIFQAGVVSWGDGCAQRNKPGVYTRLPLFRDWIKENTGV

Coagulation factor X = Coagulation factor X (Homo sapiens, UniProt P00742); assay: Inhibition of human factor 10a using CH3OCO-D-Cha-Gly-Arg-pNA as substrate
Prothrombin = Prothrombin (Bos taurus, UniProt P00735); assay: Inhibition of bovine thrombin using MeSO2-D-Cha-Gly-Arg-pNA as substrate
[2] = target: T2, Transmembrane protease serine 6 (Homo sapiens, UniProt Q8IU80); assay: Inhibition of matriptase-2 (unknown origin) expressed in HEK293 cells using ln-Ala-Arg-a-Arg-para-nitroanilide as substrate by UV-vis spectrophotometry; type: cell-based
T2 sequence (Q8IU80 whole entry): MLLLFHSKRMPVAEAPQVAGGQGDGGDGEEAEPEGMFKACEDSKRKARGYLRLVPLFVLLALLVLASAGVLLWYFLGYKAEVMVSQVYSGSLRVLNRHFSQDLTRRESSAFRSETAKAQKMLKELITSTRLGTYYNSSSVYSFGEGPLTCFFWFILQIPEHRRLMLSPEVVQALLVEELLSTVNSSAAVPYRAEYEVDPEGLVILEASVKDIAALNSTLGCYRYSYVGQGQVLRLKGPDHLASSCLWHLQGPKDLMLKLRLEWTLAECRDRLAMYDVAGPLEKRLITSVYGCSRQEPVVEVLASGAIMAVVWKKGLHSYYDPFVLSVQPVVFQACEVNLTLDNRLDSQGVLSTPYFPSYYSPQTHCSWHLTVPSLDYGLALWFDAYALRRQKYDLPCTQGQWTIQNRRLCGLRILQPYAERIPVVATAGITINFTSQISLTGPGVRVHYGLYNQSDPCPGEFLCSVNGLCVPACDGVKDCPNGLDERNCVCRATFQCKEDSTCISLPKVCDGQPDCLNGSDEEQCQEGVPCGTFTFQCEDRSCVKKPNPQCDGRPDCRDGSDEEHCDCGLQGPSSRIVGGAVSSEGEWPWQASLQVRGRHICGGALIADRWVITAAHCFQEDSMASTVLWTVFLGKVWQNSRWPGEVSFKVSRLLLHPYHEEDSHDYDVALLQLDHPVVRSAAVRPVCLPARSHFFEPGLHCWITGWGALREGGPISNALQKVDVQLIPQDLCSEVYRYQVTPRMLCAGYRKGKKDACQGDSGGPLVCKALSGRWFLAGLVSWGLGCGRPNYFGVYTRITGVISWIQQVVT

[3] = target: Urokinase-type plasminogen activator (Homo sapiens, UniProt P00749); assay: Inhibition of human uPA using Bzbeta-Ala-Gly-Arg-pNA as substrate
[4] = Inhibition of recombinant human airway trypsin-like protease by fluorescence assay
[5] = Selectivity ratio of Ki for bovine thrombin to Ki for matriptase (unknown origin)

Sequence of Coagulation factor X (P00742 41-179 limits assumed): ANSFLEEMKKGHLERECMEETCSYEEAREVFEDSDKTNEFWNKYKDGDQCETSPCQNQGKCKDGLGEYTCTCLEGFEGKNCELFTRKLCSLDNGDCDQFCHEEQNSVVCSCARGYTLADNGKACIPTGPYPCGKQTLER
Sequence of Coagulation factor X (P00742 235-488 limits assumed): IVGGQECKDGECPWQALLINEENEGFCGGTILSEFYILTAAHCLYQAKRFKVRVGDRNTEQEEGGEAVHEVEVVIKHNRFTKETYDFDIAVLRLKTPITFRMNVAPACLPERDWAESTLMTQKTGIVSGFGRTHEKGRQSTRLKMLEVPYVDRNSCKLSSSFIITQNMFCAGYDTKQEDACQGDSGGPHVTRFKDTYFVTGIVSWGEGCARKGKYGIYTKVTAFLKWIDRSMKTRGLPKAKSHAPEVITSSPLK

Ki [1] [nM] | Ki (Coagulation factor X) [nM] | Ki (Prothrombin) [nM] | Ki [2] [nM] | Ki [3] [nM] | Ki [4] [nM] | Ratio Ki [5] | SMILES
14 | 13900 | 140 | 3300 | – | – | – | N=C(N)c1cccc(C[C@H](NS(=O)(=O)c2cccc(NC(=O)CCN)c2)C(=O)N2CCC(CCNC(N)=O)CC2)c1
13 | 170 | 400 | 400 | – | – | – | CCOc1ccc(-c2cccc(S(=O)(=O)N[C@@H](Cc3cccc(C(=N)N)c3)C(=O)N3CCC(CCN)CC3)c2)c(Cl)c1
39 | 8890 | 15300 | 2400 | – | – | – | CCNC(=O)NC1CCN(C(=O)[C@H](Cc2cccc(C(=N)N)c2)NS(=O)(=O)c2cccc(NC(=O)CCN)c2)CC1
7 | 7070 | 40 | 1200 | – | – | – | CNC(=O)NCCC1CCN(C(=O)[C@H](Cc2cccc(C(=N)N)c2)NS(=O)(=O)c2cccc(NC(=O)CCN)c2)CC1
49 | 180 | 30 | 1300 | – | – | – | CCOc1ccc(-c2cccc(S(=O)(=O)N[C@@H](Cc3cccc(C(=N)N)c3)C(=O)N3CCC(CCCC(=O)NC)CC3)c2)c(Cl)c1
74 | 230 | 3 | 1600 | – | – | – | CNC(=O)CCCC1CCN(C(=O)[C@H](Cc2cccc(C(=N)N)c2)NS(=O)(=O)c2cccc(-c3ccc(Cl)c(Cl)c3)c2)CC1
35 | 16900 | 9700 | 3900 | – | – | – | N=C(N)c1cccc(C[C@H](NS(=O)(=O)c2cccc(NC(=O)CCN)c2)C(=O)N2CCC(NC(N)=O)CC2)c1
8 | 1200 | 35900 | 790 | – | – | – | N=C(N)c1cccc(C[C@H](NS(=O)(=O)c2cccc(NC(=O)CCN)c2)C(=O)N2CCC(NC(=O)NC3CCCCC3)CC2)c1
56 | 14100 | 10800 | 1300 | – | – | – | CNC(=O)NC1CCN(C(=O)[C@H](Cc2cccc(C(=N)N)c2)NS(=O)(=O)c2cccc(NC(=O)CCN)c2)CC1
51 | 260 | 4 | 750 | – | – | – | CNC(=O)CCCC1CCN(C(=O)[C@H](Cc2cccc(C(=N)N)c2)NS(=O)(=O)c2cccc(-c3cccc(Cl)c3Cl)c2)CC1
23 | 810 | 40 | 2100 | – | – | – | N=C(N)c1cccc(C[C@H](NS(=O)(=O)c2cccc(-c3ccccc3F)c2)C(=O)N2CCC(CCN)CC2)c1
2.7 | 11 | 1230 | 1420 | 18500 | 830 | > 500 | COc1ccc(-c2cccc(S(=O)(=O)N[C@@H](Cc3cccc(C(=N)N)c3)C(=O)N3CCC(NC(=O)NC4CCCCC4)CC3)c2)c(OC)c1
11 | 2610 | 440 | 1900 | – | – | – | N=C(N)c1cccc(C[C@H](NS(=O)(=O)c2cccc(NC(=O)CCN)c2)C(=O)N2CCC(CCNC(=O)Nc3ccccc3)CC2)c1
130 | 3050 | 6 | 10000 | – | – | – | CNC(=O)CCCC1CCN(C(=O)[C@H](Cc2cccc(C(=N)N)c2)NS(=O)(=O)c2cccc(-c3cccc(F)c3)c2)CC1
13 | 32 | 1 | 350 | – | – | – | CNC(=O)CCCC1CCN(C(=O)[C@H](Cc2cccc(C(=N)N)c2)NS(=O)(=O)c2cccc(-c3ccc(Cl)cc3Cl)c2)CC1
18 | – | 30 | 580 | – | – | – | N=C(N)c1cccc(C[C@H](NS(=O)(=O)c2cccc(-c3ccc(Cl)c(Cl)c3)c2)C(=O)N2CCC(CCN)CC2)c1
17 | 5520 | 230 | 1300 | – | – | – | N=C(N)c1cccc(C[C@H](NS(=O)(=O)c2cccc(NC(=O)CCN)c2)C(=O)N2CCC(CCNC(=O)NCc3ccccc3)CC2)c1
120 | 550 | 1 | 4400 | – | – | – | CNC(=O)CCCC1CCN(C(=O)[C@H](Cc2cccc(C(=N)N)c2)NS(=O)(=O)c2cccc(-c3ccc(F)cc3)c2)CC1
5.1 | 20 | 630 | 940 | 18100 | 2700 | > 500 | N=C(N)c1cccc(C[C@H](NS(=O)(=O)c2cccc(-c3ccc(Cl)cc3Cl)c2)C(=O)N2CCC(NC(=O)NC3CCCCC3)CC2)c1
52 | 3200 | 40 | 3200 | – | – | – | N=C(N)c1cccc(C[C@H](NS(=O)(=O)c2cccc(-c3cccc(F)c3)c2)C(=O)N2CCC(CCN)CC2)c1
120 | 1100 | 2 | 3000 | – | – | – | CNC(=O)CCCC1CCN(C(=O)[C@H](Cc2cccc(C(=N)N)c2)NS(=O)(=O)c2cccc(-c3ccccc3F)c2)CC1
23 | 6450 | 470 | 1800 | – | – | – | N=C(N)c1cccc(C[C@H](NS(=O)(=O)c2cccc(NC(=O)CCN)c2)C(=O)N2CCC(CCNC(=O)NC3CCCCC3)CC2)c1
11 | – | 20 | 210 | – | – | – | N=C(N)c1cccc(C[C@H](NS(=O)(=O)c2cccc(-c3cccc(Cl)c3Cl)c2)C(=O)N2CCC(CCN)CC2)c1
0.9 | 29 | 0.2 | 73 | 3400 | 170 | – | CNC(=O)NCCC1CCN(C(=O)[C@H](Cc2cccc(C(=N)N)c2)NS(=O)(=O)c2cccc(-c3ccc(Cl)cc3Cl)c2)CC1
14 | 3410 | 9250 | 1300 | – | – | – | N=C(N)c1cccc(C[C@H](NS(=O)(=O)c2cccc(NC(=O)CCN)c2)C(=O)N2CCC(NC(=O)Nc3ccccc3)CC2)c1
33 | 1120 | 5 | 3200 | – | – | – | N=C(N)c1cccc(C[C@H](NS(=O)(=O)c2cccc(-c3ccc(F)cc3)c2)C(=O)N2CCC(CCN)CC2)c1
26 | 2450 | 7840 | 1100 | – | – | – | N=C(N)c1cccc(C[C@H](NS(=O)(=O)c2cccc(NC(=O)CCN)c2)C(=O)N2CCC(NC(=O)NCc3ccccc3)CC2)c1
1.8 | 51 | 0.8 | 180 | 4400 | 110 | – | CNC(=O)NCCC1CCN(C(=O)[C@H](Cc2cccc(C(=N)N)c2)NS(=O)(=O)c2cccc(-c3ccc(OC)cc3OC)c2)CC1
8 | 60 | 1 | 770 | – | – | – | CNC(=O)CCCC1CCN(C(=O)[C@H](Cc2cccc(C(=N)N)c2)NS(=O)(=O)c2cccc(-c3ccc(OC)cc3OC)c2)CC1
12 | 4790 | 130 | 460 | – | – | – | CCNC(=O)NCCC1CCN(C(=O)[C@H](Cc2cccc(C(=N)N)c2)NS(=O)(=O)c2cccc(NC(=O)CCN)c2)CC1

SMILES | Ki [1] [nM] | Ki (Coagulation factor X) [nM] | Ki (Prothrombin) [nM] | Ki [2] [nM] | Ki [3] [nM] | Ki [4] [nM] | Ratio Ki [5]
N=C(N)c1cccc(C[C@H](NS(=O)(=O)c2cccc(-c3ccc(Cl)cc3Cl)c2)C(=O)N2CCC(CCN)CC2)c1 | 2 | 50 | 20 | 110 | – | – | –
